| melting point [°C] | Structure (SMILES) |
| --- | --- |
| 63 to 65 | CC(=O)CC(=O)c1ccncc1 |
| 43 to 45 | COC(=O)c1cc(OC)ccn1 |
| 109 to 111 | Cc1nc(C)n(Cc2cccc(N)c2)n1 |
| 104 to 106 | N#Cc1c(N)sc2c1CCCCCC2 |
| 59 to 61 | COc1ccc(C(C)=O)c(OCc2ccccc2)c1 |
| 109 to 111 | O=C(NCC1CCCCN1)c1ccccc1 (stereo not drawn) |
| 98 to 100 | O=C(O)CNC(=O)CC1CCCC1 |
| 229 to 231 | COC(=O)c1[nH]c(=O)[nH]c1C |
| 86 to 88 | O=C(O)CCC=Cc1ccccc1 |
| 239 to 241 | Nc1nnc(-c2ccncc2)o1 |
| 85 to 87 | NCC(=O)Nc1ccc(F)cc1 |
| 104 to 106 | CCc1nc2ccccc2n1CC#N |
| 134 to 136 | CCOC(=O)/C(C#N)=C\Nc1ccc(C)cc1 |
| 179 to 181 | COc1cc(C(=O)O)ccc1OCc1cccnc1 |
| 180 to 182 | COc1ccc2c(-c3ccccc3)cc(S)nc2c1 |
| 125 to 127 | CC1CCN(C(=O)CCl)c2ccccc2S1 (stereo not drawn) |
| 225 to 227 | CC(C)c1cc(C(=O)O)nn1-c1ccncc1 |
| 134 to 136 | COc1cc(N)c(C(=O)O)c(Br)c1 |
| 105 to 107 | CNC(=O)CC1CCNCC1 |
| 119 to 121 | O=C(O)c1c[nH]c(Br)c1 |
| 150 to 152 | COC(=O)c1ccc(S(N)(=O)=O)s1 |
| 89 to 91 | COc1ccc(CNS(C)(=O)=O)cc1 |
| 99 to 101 | CCC(C)(C)c1ccc(OCCCC(=O)O)c(C(C)(C)CC)c1 |
| 101 to 103 | OCc1cnc(N2CCOCC2)s1 |

| melting point [°C] | Structure (SMILES) |
| --- | --- |
| 141 to 143 | COC(=O)COc1ccc([N+](=O)[O-])c2ccccc12 |
| 138 to 140 | O=C(O)CN1C(=O)CCCc2sccc21 |
| 120 to 122 | O=C(CCl)N1CCN(S(=O)(=O)c2ccc3c(c2)CCC3)CC1 |
| 64 to 66 | CC(C)=C(F)C(=O)O |
| 210 to 212 | O=C(O)CNC1CCCC1 |
| 162 to 171 | NS(=O)(=O)c1cccc(NC(=O)CCl)c1 |
| 200 to 202 | O=c1[nH]c(S)nc2scc(-c3ccc(F)cc3)c12 |
| 167 to 169 | Cc1c(Cl)cc(C(=O)O)cc1S(=O)(=O)Cl |
| 167 to 169 | CCOC(=O)c1sc2nc(C(C)Cl)[nH]c(=O)c2c1C (stereo not drawn) |
| 121 to 123 | CC(=O)c1cc2c(cc1[N+](=O)[O-])OCO2 |
| 316 to 318 | CNc1ncnc2nc[nH]c12 |
| 160 to 162 | O=C(O)CCn1c(=O)oc2cc(Cl)ccc21 |
| 128 to 130 | C(=C\c1ccncc1)/c1ccccc1 |
| 219 to 221 | NC(CC(=O)O)c1cnn(-c2ccccc2)c1 (stereo not drawn) |
| 151 to 153 | O=C(O)CCCc1ccc2c(c1)-c1ccccc1C2 |
| 104 to 108 | CCOc1ccccc1N1CC(C(=O)O)CC1=O (stereo not drawn) |
| 89 to 91 | CC(C)(O)c1cn(-c2ccccc2)nn1 |
| 122 to 124 | O=C(O)CCC(=O)c1ccc2c(c1)CCCC2 |
| 157 to 159 | CC(C)(C)OC(=O)Nc1ccc(N)cn1 |
| 49 to 51 | COC(=O)c1nccc(Cl)c1F |
| 269 to 271 | O=c1[nH]nc2ccc(Cl)nn12 |
| 45 to 47 | CCCOc1ccc(OCCBr)cc1 |
| 121 to 123 | O=C(O)C1C2CC3CC(C2)CC1C3 (stereo not drawn) |
| 79 to 81 | CCC1(O)CCC(N)CC1 (stereo not drawn) |

| melting point [°C] | Structure (SMILES) |
| --- | --- |
| 94 to 96 | O=S(=O)(NC1CC1)c1ccc(Cl)nc1 |
| 155 to 157 | Clc1cc2nnc(-c3ccccc3)n2cn1 |
| 157 to 159 | O=C(O)C1CC1c1ccc(Cl)cc1Cl (stereo not drawn) |
| 232 to 234 | O=C(O)c1csc(S(=O)(=O)N2CCc3ccccc3C2)c1 |
| 148 to 150 | Sc1ccc(Cl)nn1 |
| 175 to 177 | Cc1cccc(NC(=O)C2CCNCC2)n1 |
| 217 to 219 | CC(C)(C)NC(=O)c1ccc(C(=O)O)cc1 |
| 157 to 159 | NS(=O)(=O)c1ccc(SCC(=O)O)cc1 |
| 173 to 175 | CC(=O)Nc1cccc(NC(=O)CCl)c1 |
| 223 to 225 | O=C(CCl)Nc1cc2ccccc2cc1C(=O)O |
| 146 to 148 | O=C1CCS(=O)(=O)c2ccc(Br)cc21 |
| 136 to 138 | Cc1ccc(S(C)(=O)=O)cc1S(=O)(=O)Cl |
| 109 to 111 | Nc1cc(=O)[nH]n1-c1ccccc1 |
| 214 to 216 | CCCc1c(C(=O)O)[nH]c(C)c1C(C)=O |
| 69 to 71 | Cc1cc(N)nn1-c1cccc(F)c1 |
| 78 to 80 | CCn1ccnc1S |
| 69 to 71 | CC(C)(C)OC(=O)N1CCNc2ccccc2C1 |
| 94 to 96 | O=C(O)c1ncoc1C(F)(F)F |
| 119 to 121 | O=C(CCl)N1CCN(S(=O)(=O)c2c(F)cccc2F)CC1 |
| 299 to 301 | O=C(O)c1c2c(nc3ccccc13)C(=Cc1cccc([N+](=O)[O-])c1)CCC2 |
| 113 to 115 | Cc1cc(Cl)cc2cc(C#N)oc12 |
| 148 to 152 | Cc1ccc(S(=O)(=O)N2CCOCC2)cc1C(=O)O |
| 109 to 111 | NC(=S)Cc1ccc(F)cc1 |
| 302 to 304 | c1nc(N2CCCC2)c2nc[nH]c2n1 |

| melting point [°C] | Structure (SMILES) |
| --- | --- |
| 129 to 131 | CC(C)c1ccc(N2CCC(C(=O)O)C2=O)cc1 (stereo not drawn) |
| 157 to 159 | Nc1ccc2[nH]nc(N)c2c1 |
| 253 to 255 | O=C(O)CC1COCCN1 (stereo not drawn) |
| 123 to 125 | CN(C)c1nc(-c2ccccc2)c(C=O)s1 |
| 154 to 156 | CCN(CC)Cc1ccc(C(=O)O)cc1 |
| 189 to 191 | CCOc1ccc(C(=O)N2CCCC(C(=O)O)C2)cc1OCC (stereo not drawn) |
| 169 to 171 | O=C(O)CSc1nnc(-c2ccccc2)o1 |
| 149 to 151 | O=C(O)c1ccc(F)c(COc2ccc(F)cc2)c1 |
| 264 to 266 | NC(=O)c1c[nH]c(C(=O)O)c1 |
| 38 to 40 | Cc1c(CN)cnn1C |
| 104 to 106 | CCC(=O)c1ccc(N(C)C)cc1 |
| 141 to 143 | Cc1cc(N)ccc1NS(C)(=O)=O |
| 157 to 159 | O=C1C(=O)N(CO)c2ccccc21 |
| 146 to 148 | CC(C)(C)NC(=O)c1ccccc1C(=O)O |
| 138 to 140 | NC(=O)C1(N2CCNCC2)CCCC1 |
| 63 to 65 | CCCc1nnn[nH]1 |
| 125 to 127 | Cc1cc(C)cc(-n2[nH]c(-c3ccco3)cc2=N)c1 |
| 64 to 66 | CCNC(=O)c1cccc(C)c1O |
| 34 to 36 | COC(=O)c1ncon1 |
| 100 to 102 | CN(c1ccc(O)cc1)S(=O)(=O)c1ccccc1F |
| 221 to 223 | CC(=O)Nc1ccc(O)c(C(=O)O)c1 |
| 128 to 130 | CC(=O)NCCNC(=O)c1ccccc1N |
| 194 to 196 | CC1Cc2cc(C(=O)O)ccc2N1S(C)(=O)=O (stereo not drawn) |
| 75 to 77 | COC(=O)CCS(=O)(=O)c1ccc(Br)cc1 |

| melting point [°C] | Structure (SMILES) |
| --- | --- |
| 32 to 34 | Clc1ccnc2ccsc12 |
| 159 to 161 | Fc1ccc2nc(-c3ccccn3)[nH]c2c1 |
| 182 to 184 | CCOc1ccc(OCCOc2ccc(C=CC(=O)O)cc2OCC)cc1 |
| 88 to 90 | COC(=O)c1ccsc1N1CCC(N)C1=O (stereo not drawn) |
| 179 to 181 | CC(C)c1nnnn1CC(=O)O |
| 92 to 94 | Cn1c(Cl)c(C=O)c2ccccc21 |
| 86 to 88 | COCC(N)=O |
| 219 to 221 | COc1ccc(C=CC(=O)O)cc1S(=O)(=O)N1CCCCC1 |
| 143 to 145 | CNc1cc(Cl)nc(C)n1 |
| 104 to 106 | CCN1C(=O)C(=O)c2cc(C)ccc21 |
| 119 to 121 | COc1ccc2[nH]c(C)nc2c1 |
| 140 to 142 | Cc1nn(C)c(C)c1C(O)C(F)(F)F (stereo not drawn) |
| 169 to 171 | Cc1n[nH]c(C)c1CCC(=O)O |
| 159 to 161 | Cn1cc(C#N)ccc1=O |
| 143 to 144 | O=C(O)c1cc(F)cnc1Cl |
| 185 to 187 | NS(=O)(=O)c1ccc(Cl)c(S(=O)(=O)Cl)c1 |
| 160 to 162 | Cc1n[nH]c(N)c1C#N |
| 78 to 80 | O=C(Nc1ccco1)OCC(F)(F)F |
| 30 to 32 | COC(=O)c1ccc(Cl)nc1C |
| 271 to 273 | Cc1nn(-c2cccc(C(F)(F)F)c2)c2sc(C(=O)O)cc12 |
| 244 to 246 | O=C(O)c1ccc(S(=O)(=O)C(F)(F)F)cc1 |
| 85 to 87 | ClCc1csc(-c2ccccn2)n1 |
| 64 to 66 | O=C(O)CCc1ccc2c(c1)OCCO2 |
| 151 to 153 | O=C(O)CCS(=O)(=O)c1ccc(Br)cc1 |

| melting point [°C] | Structure (SMILES) |
| --- | --- |
| 225 to 227 | Cc1ccccc1C(N)CC(=O)O (stereo not drawn) |
| 20 to 22 | NCc1nnc2n1CCC2 |
| 116 to 118 | CCCc1ccccc1NC(N)=S |
| 131 to 133 | COc1ccc(C)cc1CC(=O)O |
| 239 to 241 | Cc1noc2nc(-c3cccc(Cl)c3)cc(C(=O)O)c12 |
| 151 to 153 | CCN(CC)c1nc2ccccc2[nH]c1=O |
| 131 to 133 | O=C(O)c1cn(Cc2ccccc2)nc1-c1cccs1 |
| 123 to 125 | O=S1(=O)Cc2ccccc2N1 |
| 57 to 59 | c1ccc2cc(C3CO3)ccc2c1 (stereo not drawn) |
| 87 to 89 | Nc1cccc(OCc2ccc(F)cc2)c1 |
| 131 to 133 | CC(C)NC(=O)c1ccc(Cl)c(N)c1 |
| 106 to 108 | O=C1c2ccncc2C(=O)N1CCO |
| 174 to 176 | Nc1ccc(Cc2nnn[nH]2)cc1 |
| 127 to 129 | CCOC(=O)c1ncccc1N |
| 227 to 229 | Cc1nnc2c(N)cc(Cl)nn12 |
| 82 to 84 | O=C(O)c1cccc(C2CCCOC2)c1 (stereo not drawn) |
| 123 to 125 | OCc1cnc2ccccn12 |
| 120 to 122 | COc1ccc2c(c1)CC(C(=O)O)CO2 (stereo not drawn) |
| 221 to 223 | Cc1ccc(C(=O)O)cc1N1C(=O)C2CC=CCC2C1=O (stereo not drawn) |
| 148 to 149 | CS(=O)(=O)c1ccc(Cl)c(NC(=O)CCl)c1 |

| Structure (SMILES) | melting point [°C] |
| --- | --- |
| N#Cc1ccc(N2C(=O)NC(CCC(=O)O)C2=O)cc1 (stereo not drawn) | 220 to 222 |
| C1=C(c2c[nH]c3ncccc23)CCNC1 | 181 to 183 |
| COc1ccc(Cn2[nH]cc(Br)c2=N)cc1 | 92 to 94 |
| c1ccc2[nH]c(C3CCCNC3)nc2c1 (stereo not drawn) | 189 to 191 |
| O=C1NC(=O)C2(CN3CCC2CC3)N1 (stereo not drawn) | 298 to 300 |
| ClCc1cnc(Cl)s1 | 31 to 33 |
| N#Cc1ccc(NC(=O)CCCl)cc1Cl | 156 to 158 |
| Cc1cc(C)c(CBr)c(C)c1 | 49 to 51 |

From a melting point compilation (Tetko et al.)
